Measured values published in patent US9499550B2 (BRISTOL-MYERS SQUIBB COMPANY, priority 2012, dated 2016).
Like-named read-outs stand apart in the source and are kept apart here.

How the values were obtained:
[1] = test system: HCV genotype 1a (H77 strain) replicon in HUH-7 cells; assay: HCV replicon luciferase reporter assay, genotype 1a; format: cell-based; conditions: Hepatitis C virus, Huh-7, 72 h, 3 days incubation, read-out: LE_1a (EC50, range)
Outline: (§1)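 Replicon inhibition for both genotypes was measured as Renilla luciferase signal (EnduRen, 7.5 μM final, 2 h) after 3-day, 37° C exposure of replicon-bearing HUH-7 cells in 4% FCS DMEM, 0.5% DMSO. The 1b construct carries S1179I; the 1a H77 construct carries P1496L and S2204I. Twenty-point, 3-fold dilutions were fitted four-parametrically for EC50, and CC50 was taken from multiplexed Cell Titer-Blue.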

[2] = test system: HCV genotype 1b (Con1) replicon in HUH-7 cells; assay: HCV replicon luciferase reporter assay, genotype 1b; format: cell-based; conditions: Hepatitis C virus, Huh-7, 72 h, 3 days incubation, read-out: LE_1b (EC50, range)
Outline: as §1

[3] = HCV genotype 1a replicon luciferase
[4] = HCV genotype 1b replicon luciferase
[5] = HCV genotype 1a replicon luciferase assay, range class
[6] = HCV genotype 1b replicon luciferase assay, range class
[7] = GETYPE1A, HCV genotype 1a replicon luciferase
[8] = GETYPE1B, HCV genotype 1b replicon luciferase

| SMILES | EC50 [1, 3] | EC50 [2, 4] | EC50 [1, 5] | EC50 [2, 6] | further results |
| --- | --- | --- | --- | --- | --- |
| CC[C@@H]1C[C@H](C)CC/C=C\[C@@H]2C[C@@]2(C(=O)NS(=O)(=O)C2(C)CC2)NC(=O)[C@@H]2C[C@@H](Oc3nc4c(c5ccccc35)CCCO4)CN2C(=O)[C@H]1NC(=O)OC(C)(C)C(F)(F)F [Compound 6054, 1,1,1-trifluoro-2-methylpropan-2-yl((2R,6S,7R,9R,13aS,14aR,16aS,Z)-2-((2,3-dihydro-1H-pyrano[2,3-c]isoquinolin-6-yl)oxy)-7-ethyl-9-methyl-14a-(((1-methylcyclopropyl)sulfonyl)carbamoyl)-5,16-dioxo-1,2,3,5,6,7,8,9,10,11,13a,14,14a,15,16,16a-hexadecahydrocyclopropa[e]pyrrolo[1,2-a][1,4]diazacyclopentadecin-6-yl)carbamate] | 1.01 to 5 nM | 0.1 to 0.5 nM |  |  |  |
| CC(C)Oc1ccc2c(O[C@@H]3C[C@H]4C(=O)N[C@]5(C(=O)NS(=O)(=O)C6CC6)C[C@H]5/C=C\CC[C@H](C)C[C@@H](C)[C@H](NC(=O)OC(C)(C)C)C(=O)N4C3)nccc2c1 [Compound 5145, tert-butyl ((2R,6S,7R,9S,13aS,14aR,16aS,Z)-14a-((cyclopropylsulfonyl)carbamoyl)-2-((6-isopropoxyisoquinolin-1-yl)oxy)-7,9-dimethyl-5,16-dioxo-1,2,3,5,6,7,8,9,10,11,13a,14,14a,15,16,16a-hexadecahydrocyclopropa[e]pyrrolo[1,2-a][1,4]diazacyclopentadecin-6-yl)carbamate] | 4.82 to 103 nM | < 5.46 nM |  |  |  |
| COCCOc1cnc(O[C@@H]2C[C@H]3C(=O)N[C@]4(C(=O)NS(=O)(=O)C5CC5)C[C@H]4/C=C\CC[C@@H](C)C[C@@H](C)[C@H](NC(=O)OC(C)(C)C)C(=O)N3C2)c2ccc(OC)cc12 [Compound 1155, tert-butyl ((2R,6S,7R,9R,13aS,14aR,16aS,Z)-14a-((cyclopropylsulfonyl)carbamoyl)-2-((6-methoxy-4-(2-methoxyethoxyl)isoquinolin-1-yl)oxy)-7,9-dimethyl-5,16-dioxo-1,2,3,5,6,7,8,9,10,11,13a,14,14a,15,16,16a-hexadecahydrocyclopropa[e]pyrrolo[1,2-a][1,4]diazacyclopentadecin-6-yl)carbamate] |  |  | < 5.46 nM | < 5.46 nM |  |
| CC(C)n1nc(O[C@@H]2C[C@H]3C(=O)N[C@]4(C(=O)NS(=O)(=O)C5(C)CC5)C[C@H]4/C=C\CC[C@H](C)C[C@@H](C)[C@H](NC(=O)OC(C)(C)C(C)(F)F)C(=O)N3C2)c2ccccc2c1=O [Compound 1015, 3,3-difluoro-2-methylbutan-2-yl((2R,6S,7R,9S,13aS,14aR,16aS,Z)-2-((3-isopropyl-4-oxo-3,4-dihydrophthalazin-1-yl)oxy)-7,9-dimethyl-14a-(((1-methylcyclopropyl)sulfonyl)carbamoyl)-5,16-dioxo-1,2,3,5,6,7,8,9,10,11,13a,14,14a,15,16,16a-hexadecahydrocyclopropa[e]pyrrolo[1,2-a][1,4]diazacyclopentadecin-6-yl)carbamate] |  |  | > 87.4 nM | > 87.4 nM |  |
| [2H]C([2H])([2H])C(OC(=O)N[C@@H]1C(=O)N2C[C@H](Oc3nn(CC)c(=O)c4ccccc34)C[C@H]2C(=O)N[C@]2(C(=O)NS(=O)(=O)C3(C)CC3)C[C@H]2/C=C\CC[C@H](C)C[C@H]1C)(C([2H])([2H])[2H])C(F)(F)F [Compound 5054] | > 87.4 nM | > 87.4 nM |  |  |  |
| CC(C)Oc1cc2c(Cl)cccc2c(O[C@@H]2C[C@H]3C(=O)N[C@]4(C(=O)NS(=O)(=O)C5(C)CC5)C[C@H]4/C=C\CC[C@@H](C)C[C@@H](C)[C@H](NC(=O)OC(C)(C)C(F)(F)F)C(=O)N3C2)n1 [Compound 1102, 1,1,1-trifluoro-2-methylpropan-2-yl((2R,6S,7R,9R,13aS,14aR,16aS,Z)-2-((5-chloro-3-isopropoxyisoquinolin-1-yl)oxy)-7,9-dimethyl-14a-(((1-methylcyclopropyl)sulfonyl)carbamoyl)-5,16-dioxo-1,2,3,5,6,7,8,9,10,11,13a,14,14a,15,16,16a-hexadecahydrocyclopropa[e]pyrrolo[1,2-a][1,4]diazacyclopentadecin-6-yl)carbamate] |  |  | < 5.46 nM | < 5.46 nM |  |
| CC[C@@H]1C[C@H](C)CC/C=C\[C@@H]2C[C@@]2(C(=O)NS(=O)(=O)C2(C)CC2)NC(=O)[C@@H]2C[C@@H](Oc3ncc(OC)c4cc(OC)ccc34)CN2C(=O)[C@H]1NC(=O)OC(C)(C)C(F)(F)F [Compound 4197] |  |  |  |  | EC50 [1, 7]: < 5.46 nM; EC50 [2, 8]: < 5.46 nM |
| COc1cc2cc(F)ccc2c(O[C@@H]2C[C@H]3C(=O)N[C@]4(C(=O)NS(=O)(=O)C5(CF)CC5)C[C@H]4/C=C\CC[C@@H](C)C[C@@H](C)[C@H](NC(=O)OC(C)(C)C)C(=O)N3C2)n1 [Compound 3210, tert-butyl ((2R,6S,7R,9R,13aS,14aR,16aS,Z)-2-((6-fluoro-3-methoxyisoquinolin-1-yl)oxy)-14a-(((1-(fluoromethyl)cyclopropyl)sulfonyl)carbamoyl)-7,9-dimethyl-5,16-dioxo-1,2,3,5,6,7,8,9,10,11,13a,14,14a,15,16,16a-hexadecahydrocyclopropa[e]pyrrolo[1,2-a][1,4]diazacyclopentadecin-6-yl)carbamate] | 1.01 to 5 nM | 0.1 to 0.5 nM |  |  |  |
| COc1cnc(O[C@@H]2C[C@H]3C(=O)N[C@]4(C(=O)NS(=O)(=O)C5(CF)CC5)C[C@H]4/C=C\CC[C@H](C)C[C@@H](C)[C@H](NC(=O)OC(C)(C)CC(F)(F)F)C(=O)N3C2)c2ccccc12 [Compound 1061, 4,4,4-trifluoro-2-methylbutan-2-yl((2R,6S,7R,9S,13aS,14aR,16aS,Z)-14a-(((1-(fluoromethyl)cyclopropyl)sulfonyl)carbamoyl)-2-((4-methoxyisoquinolin-1-yl)oxy)-7,9-dimethyl-5,16-dioxo-1,2,3,5,6,7,8,9,10,11,13a,14,14a,15,16,16a-hexadecahydrocyclopropa[e]pyrrolo[1,2-a][1,4]diazacyclopentadecin-6-yl)carbamate] |  |  | 4.82 to 103 nM | 4.82 to 103 nM |  |
| COc1cnc(O[C@@H]2C[C@H]3C(=O)N[C@]4(C(=O)NS(=O)(=O)C5(CO)CC5)C[C@H]4/C=C\CC[C@@H](C)C[C@@H](C)[C@H](NC(=O)OC(C)(C)C)C(=O)N3C2)c2ccccc12 [Compound 4114, tert-butyl (2R,6S,7R,9R,13aS,14aR,16aS,Z)-14a-(1-(hydroxymethyl)cyclopropylsulfonylcarbamoyl)-2-(4-methoxyisoquinolin-1-yloxy)-7,9-dimethyl-5,16-dioxo-1,2,3,5,6,7,8,9,10,11,13a,14,14a,15,16,16a-hexadecahydrocyclopropa[e]pyrrolo[1,2-a][1,4]diazacyclopentadecin-6-ylcarbamate] | 4.82 to 103 nM | 4.82 to 103 nM |  |  |  |
| COc1cc2c(N3CCOCC3)cnc(O[C@@H]3C[C@H]4C(=O)N[C@]5(C(=O)NS(=O)(=O)C6(C)CC6)C[C@H]5/C=C\CC[C@@H](C)C[C@@H](C)[C@H](NC(=O)OC(C)(C)C(F)(F)F)C(=O)N4C3)c2cc1F [Compound 4101] |  |  |  |  | EC50 [1, 7]: < 5.46 nM; EC50 [2, 8]: < 5.46 nM |
| COc1ccc2c(O[C@@H]3C[C@H]4C(=O)N[C@]5(C(=O)NS(=O)(=O)C6(CF)CC6)C[C@H]5/C=C\CC[C@@H](C)C[C@@H](C)[C@H](NC(=O)OC(C)(C)C)C(=O)N4C3)ncc(F)c2c1 [Compound 4382, tert-butyl ((2R,6S,7R,9R,13aS,14aR,16aS,Z)-2-((4-fluoro-6-methoxyisoquinolin-1-yl)oxy)-14a-(((1-(fluoromethyl)cyclopropyl)sulfonyl)carbamoyl)-7,9-dimethyl-5,16-dioxo-1,2,3,5,6,7,8,9,10,11,13a,14,14a,15,16,16a-hexadecahydrocyclopropa[e]pyrrolo[1,2-a][1,4]diazacyclopentadecin-6-yl)carbamate] | 1.01 to 5 nM | 0.51 to 1 nM |  |  |  |
| [2H]C([2H])([2H])C(OC(=O)N[C@@H]1C(=O)N2C[C@H](Oc3nn(CC)c(=O)c4ccccc34)C[C@H]2C(=O)N[C@]2(C(=O)NS(=O)(=O)C3CC3)C[C@H]2/C=C\CC[C@H](C)C[C@H]1C)(C([2H])([2H])[2H])C(F)(F)F [Compound 5068] | > 87.4 nM | > 87.4 nM |  |  |  |
| COc1ccc2c(O[C@@H]3C[C@H]4C(=O)N[C@]5(C(=O)NS(=O)(=O)C6CC6)C[C@H]5/C=C\CC[C@H](C)C[C@@H](C)[C@H](NC(=O)OC(C)(C)C)C(=O)N4C3)nc(-c3ccc(OC(C)C)cn3)cc2c1 [Compound 5200, tert-butyl ((2R,6S,7R,9S,13aS,14aR,16aS,Z)-14a-((cyclopropylsulfonyl)carbamoyl)-2-((3-(5-isopropoxypyridin-2-yl)-6-methoxyisoquinolin-1-yl)oxy)-7,9-dimethyl-5,16-dioxo-1,2,3,5,6,7,8,9,10,11,13a,14,14a,15,16,16a-hexadecahydrocyclopropa[e]pyrrolo[1,2-a][1,4]diazacyclopentadecin-6-yl)carbamate] | < 5.46 nM | < 5.46 nM |  |  |  |
| CCCOc1cc2c(Cl)cccc2c(O[C@@H]2C[C@H]3C(=O)N[C@]4(C(=O)NS(=O)(=O)C5(C)CC5)C[C@H]4/C=C\CC[C@@H](C)C[C@@H](C)[C@H](NC(=O)O[C@H](C)C(F)(F)F)C(=O)N3C2)n1 [Compound 1080, (R)-1,1,1-trifluoropropan-2-yl ((2R,6S,7R,9R,13aS,14aR,16aS,Z)-2-((5-chloro-3-propoxyisoquinolin-1-yl)oxy)-7,9-dimethyl-14a-(((1-methylcyclopropyl)sulfonyl)carbamoyl)-5,16-dioxo-1,2,3,5,6,7,8,9,10,11,13a,14,14a,15,16,16a-hexadecahydrocyclopropa[e]pyrrolo[1,2-a][1,4]diazacyclopentadecin-6-yl)carbamate] |  |  | < 5.46 nM | < 5.46 nM |  |
